In US4997850A, “Treating agent for osteroarthritis” (Kureha Kagaku Kogyo Kabushiki Kaisha, priority 1989, dated 1991):

B1: IL-1α: interleukin 1 alpha, added to cultured cartilage matrix to increase proteoglycan release (protein, UniProt P01583 113-271, looked up)
Interleukin-1 alpha: SAPFSFLSNVKYNFMRIIKYEFILNDALNQSIIRANDQYLTAAALHNLDEAVKFDMGAYKSSKDDAKITVILRISKTQLYVTAQDEDQPVLLKEMPEIPKTITGSETNLLFFWETHGTKNYFTSVAHPNLFIATKQDYWVCLAGGPPSITDFQILENQA

Key:
[1] = Acute toxicity (LD50) of PAC in male mice; type: in vivo; details: mouse, in vivo, ip, intraperitoneal, observed 8 days
[2] = tested on: IL-1α production in human synovial cells; experiment: Inhibition of IL-1α production in human synovial cells; type: cell-based; details: TPA and A 23187 stimulation, 40 hours
Procedure: (§1) Human synovial membrane obtained at an operation was treated with collagenase to obtain synovial cells, which were subcultured several times and inoculated on a 12-well culture dish. On reaching to confluence, the cells were provided to the test described below. The synovial cells produce IL-1 but release only a little amount and accordingly are appropriate cells to study an inhibition or an acceleration of IL-1 intracellular production.
(§2) Each DMSO (dimethylsulfoxide) solution containing one of ACP, PAL and PAC separately in a concentration of 400 times that of the final test and DMSO solution not containing any of the compound as a control, were diluted to 40 times in its volume with a medium containing fetal bovine serum (hereinafter referred to as "FBS") [Ham Medium]. 100 μl of the diluted solution was added to each well and further, 800 μl of the medium [Ham] was added to each well. […] The concentration of TPA and the ionophore in the medium were adjusted so that their final concentration in the well became 0.1 μg/ml and 0.2 μg/ml, respectively and a production of IL-1 was stimulated. Final volume of the liquid (medium) per well was 1 ml/well. After 40 hours of culture, liquid portion was removed from each well and 1 ml of a Ham medium was added to the remaining cells in each well. Freeze-thawing was repeated on the medium containing the cells several times to destroy all the cells in the medium and supernatants containing intracellular substances were obtained by centrifugation. IL-1α and IL-1β in the supernatant were determined by ELISA method using a prescribed enzyme-antibody-complex (manufactured by OHTSUKA SEIYAKU, Co., Ltd.) as intracellular IL-1s. [Refer to ENSHO, vol.

[3] = tested on: IL-1β production in human synovial cells; experiment: Inhibition of IL-1β production in human synovial cells; type: cell-based; details: TPA and A 23187 stimulation, 40 hours
Procedure: as §1, §2

[4] = tested on: proteoglycan (PG) in cultured cartilage cells; experiment: Synthesis, release and remaining amount of proteoglycan (PG) in cultured cartilage cells; type: cell-based, rat; details: for effect on PG synthesis / inhibition of PG release: PAL 1 to 10 μM, PAC 10 to 100 μM; for effect on PG synthesis: 24 hours; for inhibition of PG release: control release 100%; for remaining amount of PG in the matrix: PAL between 1 and 3.3 μM, PAC between 10 and 100 μM
Procedure: Costal cartilage was aseptically taken out from male SD rats of 4 weeks age, enzymatically treated to separate it into single cells, then inoculated into a 12-well culture dish and cultured under an atmosphere containing 5% CO2 at 37° C. After the chondrocytes had been grown to confluence, 1 to 10 μM of PAL or 10 to 100 μM of PAC was added and three hours later, 2 μCi of Na2^35 SO4 was further added to each well. Twenty four hours later, the synthesis amount in, release amount from and remaining amount of PG in the matrix were determined using amount of ^35 S as an index. […] In the Figures, the PG release in the control was defined as 100%. […] In FIGS. 4(a), 4(b) and 4(c), the released amount of PG means the amount representing the PG degraded in and released from cartilage matrixes, which was calculated on a basis of ^35 S in the culture medium. The remaining amount of PG means the PG not degraded in the matrixes and was also calculated in the same way as above. Sum of the released and the remaining amounts of PG is thought to be a synthesized PG.

[5] = tested on: proteoglycan (PG) release under IL-1α; experiment: Proteoglycan (PG) release from prelabelled cultured cartilage matrix with addition of IL-1α; type: cell-based; details: for inhibition of PG release under IL-1α: 20 units of IL-1α
Procedure: Further, to a cultured cartilage matrix, in which PG is prelabelled in advance with 1 μCi of Na2^35 SO4, 20 units of IL-1α was added to each group including control group and 10 μM of PAL, 100 μM of PAL or 10 μM of ACP was added to each test group and studied the effect of each compound to the PG release from the cells.

[6] = tested on: IL-1 release from cultured cartilage cells; experiment: Inhibition of IL-1 release from cultured cartilage cells; type: cell-based, rabbit; details: 3.3 μM; TPA and A 23187 stimulation, 24 hours
Procedure: Cartilages were aseptically taken out from knee and shoulder joints of young rabbit, treated with a Ham medium containing 0.2% collagenase and separated each other into single cells. After washed two times with a Ham medium containing 10% FBS, the cells were dispersed into the Ham medium containing 10% FBS at a concentration of 10^5 cells/ml. […] After 24 hours of cultivation, IL-1 released into each of the supernatants was measured by a bioassay applying an incorporated amount of ^3 H-thymidine (^3 H-TdR) as an index. […] In the Figure, "Intact" means a case TPA and the ionophore were not added and accordingly no stimulation of IL-1 release was given.

[7] = in vivo; cited from earlier work
[8] = Acute toxicity (LD50) of PAL in female Jcl:ICR mice; details: mouse, in vivo
Procedure: For oral administration, a suspension of PAL dispersed in an aqueous solution of 0.2% CMC was prepared (a part of PAL was dissolved in the solution) and administered to the animals via a stomach sonde. For intraperitoneal administration, a suspension of PAL dispersed in an aqueous physiological saline solution was prepared (a part of PAL was dissolved in the solution) and injected to the animals with a syringe.

granuloma proliferation = details: cited from earlier work
adjuvant arthritis = details: in vivo; cited from earlier work
[9] = tested on: IL-1 release from human monocyte; experiment: Inhibition of IL-1 (IL-1α and IL-1β) release from human monocyte; type: cell-based; details: Homo sapiens, Monocyte, read-out: concentration at which the release of IL-1 is significantly inhibited; LPS 10 μg/ml, 42 hours
Procedure: Monocyte were isolated from human venous blood by density-gradient centrifugation using a Ficoll-paque solution and obtained the cells having a purity of not less than 95% by purifying with a monocyte-separating plate. After dispersing the cells in a medium, RPMI 1640, containing 10% of FBS, the monocyte were inoculated in a culture dish in a ratio of 10^6 cells/3 ml/well and cultured under an atmosphere containing 5% CO2 at 37° C. for 30 minutes. Then, each 15 μl of DMSO solution of one of ACP, PAL and PAC was added to each well (a final DMSO concentration of 0.5%) and 30 minutes later a lipopolysaccharide (hereinafter referred to as "LPS"), a substance to stimulate IL-1 production, was added at a final LPS concentration of 10 μg/ml and they were cultured for 42 hours. Then, the reacted culture medium was recovered and accompanied cells with the medium were separated by centrifugation and obtained the supernatant free of cell. IL-1α and IL-1β released from the cells were measured by ELISA method in the same manner as in item (i) above.

leukocyte migration = details: cited from earlier work
[10] = Acute toxicity (LD50) of ACP in mice; type: in vivo; details: for LD50 at 168 h: in vivo, male; for LD50: female, 10080 min
Procedure: (§3) For oral administration, a suspension of ACP dispersed in an aqueous solution of 0.5% methylcellulose and 0.4% Tween 80 (nonionic surfactant, manufactured by TOKYO KASEI, Co., Ltd.) was prepared and administered to the animals via a stomach sonde. For subcutaneous administration, a suspension of ACP dispersed in an aqueous physiological saline solution containing 0.5% of carboxymethyl cellulose sodium (hereinafter referred to as "CMC") was prepared and injected to the animals with a syringe.

[11] = Acute toxicity (LD50) of ACP in rats; type: in vivo; details: for LD50 at 168 h: in vivo, male; for LD50: female, 10080 min
Procedure: as §3

[12] = tested on: proteoglycan (PG) release under IL-1α; experiment: Proteoglycan (PG) release from prelabelled cultured cartilage matrix with addition of IL-1α; type: cell-based; details: 20 units of IL-1α, compared to control without IL-1; prelabelled 35S as 100%

Molecule | inhibiting activity of IL-1α production ([2]; 33 μM) | inhibiting activity of IL-1β production ([3]; 33 μM) | effect on PG synthesis [4] | inhibition of PG release [4] | remaining amount of PG in the matrix [4] | inhibition of IL-1 release from cartilage cells [6] | toxicity to mammals including human [7] | suppressing activity of granuloma proliferation (granuloma proliferation) | suppressing activity of adjuvant arthritis (adjuvant arthritis) | minimal effective concentration [9] | suppressing activity of leukocyte migration (leukocyte migration) | further results
O=C(O)c1ccc(O)c(O)c1 [PAC, 3,4-dihydroxybenzoic acid] | inhibiting activity of IL-1α only | inhibiting activity of IL-1α only | no effect | exhibited inhibiting activities on the PG release | increased in proportion to the adding amount | inhibit the release of IL-1 | – | – | – | – | – | LD50 at 192 h [1]: ≥ 400 mg/kg; inhibiting activity on PG release (further compounds) ([5]; concentration not given): same effects
O=Cc1ccc(O)c(O)c1 [PAL, 3,4-dihydroxybenzaldehyde] | strong inhibiting activity | strong inhibiting activity | no effect | exhibited inhibiting activities on the PG release | increased in proportion to the adding amount | inhibit the release of IL-1 | very low toxic | suppressing activity | suppressing activity | 0.33 µM | suppressing activity | LD50 at 168 h ([8]; ip, intraperitoneal): 404 mg/kg; LD50 at 168 h ([8]; oral): 1500 mg/kg; inhibition of PG release under IL-1α ([5]; PAL 10 μM and 100 μM): inhibited the release amount proportionally to the amount added
CC(=O)Oc1ccc(C(OC(C)=O)OC(C)=O)cc1OC(C)=O [ACP, 3,4-diacetoxybenzylidene diacetate] | – | – | – | – | – | inhibit the release of IL-1 | very low toxic | suppressing activity | suppressing activity | 0.67 µM | suppressing activity | inhibiting activity of IL-1α production ([2]; 10 μM): strong inhibiting activity; LD50 at 168 h ([10]; sc, subcutaneous, Jcl:ICR mouse): > 4000 mg/kg; LD50 at 168 h ([10]; oral, CD-1 mouse): > 5000 mg/kg; LD50 ([10]; oral, CD-1 mouse): > 5000 mg/kg; LD50 ([10]; subcutaneous, Jcl:ICR mouse): > 4000 mg/kg; LD50 at 168 h ([11]; sc, subcutaneous, Jcl:Wistar rat): > 4000 mg/kg; LD50 at 168 h ([11]; oral, Sprague-Dawley rat): > 5000 mg/kg; LD50 ([11]; oral, Sprague-Dawley rat): > 5000 mg/kg; LD50 ([11]; subcutaneous, Jcl:Wistar rat): > 4000 mg/kg; inhibiting activity of IL-1β production ([3]; 10 μM): strong inhibiting activity; effect on PG synthesis, release and remaining amount (ACP) ([4]; compared with PAL and PAC, concentration not given): effect having similar tendency; inhibition of PG release under IL-1α ([5]; 10 μM): inhibited the release amount
B1 | – | – | – | – | – | – | – | – | – | – | – | increase of PG release by IL-1α [12]: about 20%
